Results as given in patent US6121252A, “Phosphinic acid derivatives” (priority 1998, dated 2000).

How the values were obtained:
mice = assay: In vivo toxicity of NAALADase inhibitors (5-day survival); settings: 1 to 500 mg/kg
Text: The mice were subsequently observed two times per day for 5 consecutive days. The survival rate at each dose level is provided below in TABLE II.

SHRSP rats = assay: Cortical injury following MCAO in SHRSP rats; format: in vivo, rat; settings: for Cortical Injury Volume / Cortical Injury Volume (% injury): ± S.E.M., n = 10
Method: Rectal temperature is maintained at 37.0±0.50° C. throughout the surgical procedure using a heating lamp.

LNCaP tumors [1] = assay: In vivo LNCaP tumor model, intratumoral Compound 3; design: species or system ncr nude male mice
Method: Ncr nude male mice, age 5 to 6 weeks, were injected in the right flank with 10^7 LNCaP cells in Matrigel™ (0.1 ml total injection volume). When the tumors reached a predetermined size (50 to 60 mm^3), mice were randomly placed into treatment groups of 6 to 8 mice each. […] Controls received 50 μl of 50 mM HEPES intratumorally daily. Tumors were measured twice a week.
(§1) Response to treatment was monitored in two ways. First, mean tumor volume for each group was presented as tumor:control ratio (% T/C) and these values were compared at one point in time. Second, tumor volume versus time was monitored.

LNCaP tumors [2] = assay: In vivo LNCaP tumor model, subcutaneous Compound 3; design: species or system ncr nude male mice
Method: Ncr nude male mice, age 5 to 6 weeks, were injected in the right flank with 5×10^6 LNCaP cells in Matrigel™ (0.1 ml total injection volume). […] Controls received 50 mM HEPES s.c. daily. Once tumors were palpable they were measured twice a week.
as §1

[3] = tested on: spinal cord organotypic cultures; assay: ALS model: ChAT activity of spinal cord organotypic cultures with THA; format: cell-based, rat
Method: Organotypic cultures were prepared from lumbar spinal cord of 8 day old rats, as described by Rothstein et al., J. Neurochem., Vol. 65, No. 2 (1995), and Rothstein et al., Proc. Natl. Acad. Sci. USA, Vol. 90, pp. 6591-6595 (July 1993). In brief, lumbar spinal cords were removed and sliced into […]-thick-dorsal-ventral sections, and five slices were placed on Millipore CM semipermeable 30-mm-diameter membrane inserts. The inserts were placed on 1 ml of culture medium in 35-mm-diameter culture wells. Culture medium consisted of 50% minimal essential medium and phosphate-free HEPES (25 mM), 25% heat-inactivated horse serum, and 25 Hanks' balanced salt solution (GIBCO) supplemented with D-glucose (25.6 mg/ml) and glutamine (2 mM), at a final pH of 7.2. Antibiotic and antifungal agents were not used. Cultures were incubated at 37° C. in 5% CO2 containing humidified environment (Forma Scientific). Culture medium, along with any added pharmacological agents, was changed twice weekly.
Drugs were incubated for an additional 13 to 20 days with the 100 μM THA. At the end of this period, cultures were collected assayed for ChAT activity as described below.
To determine choline acetyltransferase (CHAT) activity, the spinal cord tissues in each dish (five slices) were pooled and frozen (-75° C.) until assay. CHAT activity was measured radiometrically by described methods using [^3 H]acetyl-CoA (Amersham; Fonnum, 1975). Protein content of tissue homogenate was determined by a Coomassi Protein Assay kit (Pierce, Rockford, Ill.).

male Long-Evans rats = assay: Nicotine self-administration in male Long-Evans rats; format: in vivo, rat; settings: 200 mg/kg
Method: Male Long-Evans rats were trained to self-administer nicotine on a fixed ratio schedule of reinforcement, as described by Corrigall et al., Psychopharmacology, Vol. 104, No. 2, pp. 171-176 (1991) and Corrigall et al., Psychopharmacology, Vol. 107, Nos. 2-3, pp. 285-289 (1992). In brief, male Long-Evans rats were food deprived for a short period of time (24-48 hours) and trained to press a lever in an operant responding chamber on an FR-1 schedule of food reinforcement. Once trained, each rat was surgically prepared with a chronic intravenous catheter implanted into the jugular vein. The rats were allowed 1 week to recover from surgery.
After 1 week, nicotine self-administration studies were initiated on an FR-1 with a 60 second signaled time-out following each infusion. During time-out, responding on the lever had no scheduled consequence. Nicotine self-administration sessions were 60 minutes in duration. Each nicotine infusion contained 30 μg of nicotine/kg rat and were delivered in a volume of 54 μl over an infusion duration of 0.3 seconds. […] Food intake was monitored during the nicotine self-administration sessions to assess non-specific drug effects.

dopaminergic neurons = assay: Parkinson's Disease model: MPTP lesioned mice; format: in vivo, CD1 mice; settings: 10 mg/kg, p<0.001
Method: To examine the effect of NAALADase inhibitors on Parkinson's Disease in vivo, MPTP lesioned mice were treated with 2-(phosphonomethyl)pentanedioicacid or a vehicle.
MPTP lesioning of dopaminergic neurons in mice was used as an animal model of Parkinson's Disease, as described by Steiner, Proc. Natl. Acad. Sci., Vol. 94, pp. 2019-2024 (March 1997). In brief, four week old male CD1 white mice were dosed IP with 30 mg/kg of MPTP for 5 days. […] At 18 days following MPTP treatment, the mice were sacrificed and their brains were removed and sectioned. Immunostaining was performed on saggital and coronal brain sections using anti-tyrosine hydroxylase (TH) antibodies to quantitate survival and recovery of dopaminergic neurons.

alcohol-preferring rats = assay: Ethanol consumption in alcohol-preferring rats; format: in vivo, rat; settings: for reduction of ethanol consumption: p<0.05
Method: A within-subject design was used where 2-(phosphonomethyl)pentanedioic acid treatments were tested once per week. Baseline ethanol drinking consisted of the mean of the 3 days prior to testing in which saline injections were given. […] 24 hour water and daily body weights were recorded to assess non-specific drug effects. Results were analyzed using paired t-tests with baseline and test day values serving as the independent variables. Ethanol intake was recorded as amount of solution consumed (mls).

[4] = 10 mg/kg then 2 mg/kg/hr for 1 hour
[5] = 100 mg/kg then 20 mg/kg/hr for one hour

## O=C(O)CCC(CP(=O)(O)O)C(=O)O (centres unmarked) [Compound 3, 2-(phosphonomethyl)pentanedioic acid]
mice
  toxicological effect (in words): non-toxic to mice
SHRSP rats; [4]
  Cortical Protection: 27 % protection
  Cortical Injury Volume: 135.00 ± 32.18 mm^3
  Cortical Injury Volume (% injury): 29.14 ± 7.68 % injury
SHRSP rats; [5]
  Cortical Protection: 65 % protection
  Cortical Injury Volume: 65.23 ± 32.18 mm^3
  Cortical Injury Volume (% injury): 13.98 ± 6.64 % injury
LNCaP tumors [1]; 0.025 μg/day intratumoral
  Optimal % T/C: 42 % T/C
  Regressions: 1/7
LNCaP tumors [1]; 0.025 μg/day, control 807.3±197.3
  Tumor volume after 42 days of treatment: 465.7±176 mm^3
LNCaP tumors [1]; 0.25 μg/day intratumoral
  Optimal % T/C: 51 % T/C
  Regressions: 1/7
LNCaP tumors [1]; 2.5 μg/day intratumoral
  Optimal % T/C: 45 % T/C
  Regressions: 0/7
LNCaP tumors [1]; 25.0 μg/day intratumoral
  Optimal % T/C: 76 % T/C
  Regressions: 0/7
LNCaP tumors [1]; 0.025, 0.25 and 2.5 μg/day intratumoral
  tumor growth (in words): slowed tumor growth substantially
LNCaP tumors [2]; 1 mg/kg s.c.
  effect on tumor growth (in words): no effect on tumor growth
LNCaP tumors [2]; 3 mg/kg s.c.
  effect on tumor growth (in words): no effect on tumor growth
LNCaP tumors [2]; 10 mg/kg s.c., day 86, p=0.006
  tumor growth, % of controls: 24 % of controls
LNCaP tumors [2]; 30 mg/kg s.c.
  effect on tumor growth (in words): no effect on tumor growth
[3]; 1 nM to 10 μM, THA 100 μM, 14 days
  protection against THA-induced toxicity (in words): dose-dependent protection against THA-induced toxicity with maximal effects at 1 μM
[3]; 100 nM - 10 μM with THA
  protection from THA toxicity (in words): significantly protected the cultures from THA toxicity
[3]; 2-(phosphonomethyl)pentanedioic acid alone
  ChAT Activity: 108 ± 18.4 % of Control
[3]; with THA
  ChAT Activity: 121 ± 18.8 % of Control
Male Long-Evans rats; 1 hour
  cumulative food intake (in words): decreased
Male Long-Evans rats; 1 hour access period, reduced from 23
  nicotine self-administration: 5 infusions
Dopaminergic neurons
  recovery of TH-stained dopaminergic neurons (in words): significant recovery of TH-stained dopaminergic neurons
alcohol-preferring rats; 50 mg/kg IP, 1 hour access
  reduction of ethanol consumption: approximately 25%
alcohol-preferring rats; 50 mg/kg, saline baseline 8.1±0.6
  ethanol intake: 6.2±0.9 mls
alcohol-preferring rats; 100 mg/kg IP, 1 hour access
  reduction of ethanol consumption: approximately 25%
alcohol-preferring rats; 100 mg/kg, saline baseline 7.8±0.8
  ethanol intake: 5.8±0.7 mls
alcohol-preferring rats; 200 mg/kg IP, 1 hour access
  effect on ethanol consumption (in words): no effect
alcohol-preferring rats; 200 mg/kg, saline baseline 8.9±0.7
  ethanol intake: 8±0.5 mls
alcohol-preferring rats; 50, 100, 200 mg/kg
  body weights and 24 hour water intakes (in words): not altered at any of the 3 doses
